Assay results published in patent US7037656B2, “Methods and compositions for identifying ligands for nuclear receptors” (priority 2000, dated 2006).

Assays:
[1] = biological target: T1, Dm ΔN EcR + DmUSP (Drosophila melanogaster, UniProt P34021); assay: Yeast 6x EcRE-lacZ β-galactosidase transactivation assay; format: cell-based; conditions: 4 hours
T1 construct: ubiquitin (human, 76 aa) (N, cleaved yes); expressed in transfected cells
Protocol: Briefly, yeast cells are cultured in 5 mL of YPD liquid medium overnight at 30° C. The cell culture was diluted 1:20 in YPD media and further grown until cell density reached an O.D of 0.6. at OD600. The cells were pelleted by centrifugation and washed with 10 mL of TE+0.1M lithium acetate. Cells are then resuspended in 10 mL TE+0.1M lithium acetate and incubated at 30° C. for 1 hour. Cells are collected and resuspended in 0.5 mL of TE+ 0.1M lithium acetate. Aliquots of cells (50 μL), were incubated for 15 minutes at 30° C. with 1–2 μg plasmid DNA in the presence of 5 μg of denatured salmon sperm DNA as DNA carrier. In the case of co-transformation, the indicated plasmids were added simultaneously. 50% polyethyleneglycol of molecular weight 4000, diluted in TE, was added to a final concentration of 35%. DMSO was added to the transformation solution simultaneously to a final concentration 3%. The samples were mixed well by vortexing and incubated for an additional 30 minutes at 30° C. The cell mixture is then heated for 15 minutes at 42° C. Cells were then collected and plated onto appropriate yeast selective media. Transformants of 4 plasmids are selected on the complete media without tryptophan, uracil, leucine and histidine.
The yeast cells grown overnight in selective liquid media at 30° C. were diluted in prewarmed liquid selective media to 0.1 at OD600 (ODculture). 100 μl of the cell culture was spiked to each well of a.96-well microtiter plate. Ligand (2 μl diluted in DMSO) was added to each well giving a final concentration of DMSO of 2%. As a control, 2 μl of DMSO were also added to additional test wells. The final concentration of the tested compounds in the media is 10 μM. The cells were incubated in the presence of ligand in a shaker at 30° C. After 4 hours of incubation, 100 μl of 2× “Z” Sarcosine-ONPG buffer (120 mM Na2HPO4, 80 mM NaH2PO4, 20 mM KCl, 2 mM MgSO4, 100 mM beta-mercaptoethanol (Sigma), pH 7.0, 0.4% lauroyl sarcosine (Sigma), 4 mg/mL ONPG (Diagnostic Chemicals limited) was added to each well and the plate was further incubated at 37° C. The 2× “Z” Sarcosine-ONPG buffer is freshly prepared or stored at −20° C. prior to use. After incubation at 37° C. for 1 hour. The reaction was stopped by adding 100 μL of quenching solution 0.5 M Na2CO3 and OD405 (ODreaction) and beta-galactosidase activity was measured in a micro plate reader (Biotek) at a wave length of 405–450 nanometers. The effect of copper on enhancement of the transactivation response mediated by the ligands tested was studied by adding CuSO4 to the media to a final concentration of 10 μM.
Using the transformation method set forth above, yeast were co-transformed with a reporter gene as shown in FIG. 2 and the expression vector encoding the full-length D. melanogaster ecdysone receptor, DmEcR (FIG. 3A) in the presence or absence of the Dm EcR heterodimer partner, DmUSP (FIG. 4A). Transformed cells were incubated with DMSO alone as a control or with a proprietary ecdysone receptor ligand (Rohm & Haas compound RH5992—tebufenozide) at final concentration 10 μM for 4 hours. The samples were then assayed for β-galactosidase activity as described above. […] As the N-terminal portion of the Dm EcR receptor is reported to play a role in ligand independent transactivation, an expression vector containing an N-terminal deletion in the EcR was constructed (see FIG. 3B) and assessed in the β-galactosidase assays described above. […] Restoration of ligand dependent transactivation was observed only when the DmΔN EcR, DmUSP and co-activator GRIP1 were coexpressed. See Table I. The data obtained indicate that the efficiency of ligand-dependent transactivation of the ecdysone receptor requires both heterodimer formation between EcR and USP, and proper interaction with co-activator GRIP1. […]

[2] = biological target: T2, Aa AB EcR/Aa USPa and SMRT (Aedes aegypti, UniProt P49880); assay: Yeast 6x EcRE-lacZ reporter assay with SMRT (ligand-dependent down regulation); format: cell-based; conditions: 10 μM; Aa AB EcR/Aa USPa co-expressed with SMRT, constitutive reporter expression without ligand (FIG. 10A)
T2 construct: human ubiquitin (76 aa) (N, cleaved yes); expressed in transfected cells; host or cells: yeast (Saccharomyces cerevisiae)
From the text: FIGS. 10A and 10B are graphs showing the roles of the coactivators and co-repressors in transactivation of AaΔEcR. Interaction of different transcriptional factors in combination with the heterodimers AaΔEcR/USPa or AaΔEcR/USPb (FIG. 10A). […] The yeast strains carrying the reporter plasmid which contains 6 EcRE response elements coupled with E. coli β gal gene in combination with the presence of different plasmids for expression of different USPs, AaΔEcR and coactivators/repressors. The final concentration of all ecdysteroid analogues was 10 μM. The data are presented as a median set of at least 8 independent experiments plus SD.
Briefly, yeast cells are cultured in 5 mL of YPD liquid medium overnight at 30° C. The cell culture was diluted 1:20 in YPD media and further grown until cell density reached an O.D of 0.6. at OD600. The cells were pelleted by centrifugation and washed with 10 mL of TE+0.1M lithium acetate. Cells are then resuspended in 10 mL TE+0.1M lithium acetate and incubated at 30° C. for 1 hour. Cells are collected and resuspended in 0.5 mL of TE+ 0.1M lithium acetate. Aliquots of cells (50 μL), were incubated for 15 minutes at 30° C. with 1–2 μg plasmid DNA in the presence of 5 μg of denatured salmon sperm DNA as DNA carrier. In the case of co-transformation, the indicated plasmids were added simultaneously. […]

T1 sequence (P34021 221-878 limits assumed, stated change not applied): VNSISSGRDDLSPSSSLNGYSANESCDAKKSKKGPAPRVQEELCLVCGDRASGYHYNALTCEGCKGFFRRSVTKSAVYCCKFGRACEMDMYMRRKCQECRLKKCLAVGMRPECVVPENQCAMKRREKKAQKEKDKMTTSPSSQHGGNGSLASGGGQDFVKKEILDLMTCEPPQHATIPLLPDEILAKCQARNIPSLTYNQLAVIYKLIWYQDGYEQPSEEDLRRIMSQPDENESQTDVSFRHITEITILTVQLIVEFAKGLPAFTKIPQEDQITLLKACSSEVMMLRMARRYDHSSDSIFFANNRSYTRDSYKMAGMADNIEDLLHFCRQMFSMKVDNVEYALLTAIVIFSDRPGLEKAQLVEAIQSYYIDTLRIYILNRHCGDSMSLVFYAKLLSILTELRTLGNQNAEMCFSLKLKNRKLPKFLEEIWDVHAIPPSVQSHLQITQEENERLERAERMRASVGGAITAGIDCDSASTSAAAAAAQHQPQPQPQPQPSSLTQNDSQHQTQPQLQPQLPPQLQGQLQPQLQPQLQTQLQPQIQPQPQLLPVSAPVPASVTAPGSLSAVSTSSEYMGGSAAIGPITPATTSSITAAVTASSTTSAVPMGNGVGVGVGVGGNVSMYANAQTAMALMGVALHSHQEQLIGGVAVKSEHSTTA
T1 sequence (P20153 whole entry partner): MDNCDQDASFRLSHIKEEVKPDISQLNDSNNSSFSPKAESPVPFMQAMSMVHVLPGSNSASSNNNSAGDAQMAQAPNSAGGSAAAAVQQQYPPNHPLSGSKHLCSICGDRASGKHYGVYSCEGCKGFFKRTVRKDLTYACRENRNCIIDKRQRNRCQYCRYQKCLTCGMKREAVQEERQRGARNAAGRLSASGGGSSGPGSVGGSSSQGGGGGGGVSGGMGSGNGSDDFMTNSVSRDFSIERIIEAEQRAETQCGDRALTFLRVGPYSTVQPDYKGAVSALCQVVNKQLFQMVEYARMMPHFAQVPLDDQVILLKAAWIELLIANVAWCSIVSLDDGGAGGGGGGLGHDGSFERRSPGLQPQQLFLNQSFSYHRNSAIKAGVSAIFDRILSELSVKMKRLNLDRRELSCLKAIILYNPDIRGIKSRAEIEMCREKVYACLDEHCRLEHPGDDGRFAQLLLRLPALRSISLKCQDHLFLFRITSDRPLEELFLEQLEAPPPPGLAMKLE
T2 sequence (P49880 with tags, fused parts or gaps): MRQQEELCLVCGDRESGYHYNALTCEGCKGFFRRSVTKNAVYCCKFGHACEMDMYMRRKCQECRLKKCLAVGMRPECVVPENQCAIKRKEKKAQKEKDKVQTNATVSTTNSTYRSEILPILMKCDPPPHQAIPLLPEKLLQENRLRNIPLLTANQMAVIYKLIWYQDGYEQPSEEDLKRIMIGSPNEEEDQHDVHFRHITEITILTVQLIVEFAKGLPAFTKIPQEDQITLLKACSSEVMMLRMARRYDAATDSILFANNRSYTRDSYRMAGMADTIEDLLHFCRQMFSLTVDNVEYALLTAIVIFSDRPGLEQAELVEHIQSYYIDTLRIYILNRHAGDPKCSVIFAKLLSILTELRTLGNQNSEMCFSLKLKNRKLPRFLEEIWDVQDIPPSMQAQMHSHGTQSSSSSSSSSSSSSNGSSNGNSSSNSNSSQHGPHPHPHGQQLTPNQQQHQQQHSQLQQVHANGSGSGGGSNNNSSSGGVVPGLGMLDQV

For CCc1ccc(C(=O)NN(C(=O)c2cc(C)cc(C)c2)C(C)(C)C)cc1 [RH 5992, tebufenozide], the “transactivation of the reporter gene (in words)” value ([1]; 10 μM, DmEcR with N-terminal deletion, DmUSP present or absent, no GRIP1) was “incapable of transactivating the reporter gene”, the β-galactosidase activity ([1]; RH 5992 10 μM, yeast, Dm ΔN EcR + DmUSP, DMSO control 0.152) was 0.182 and the “effect on reporter gene expression (in words)” value [2] was “suppression of the levels of reporter gene expression”.
